{"source": "patent US12077503B2", "about": "“Substituted cyclic amides and their use as herbicides” (FMC CORPORATION, priority 2015, dated 2024)", "type_in_all_cases": "in vivo", "key": {"Kochia (Kochia scoparia) [1]": {"test_system": "Kochia (Kochia scoparia)", "test": "Test A preemergence", "settings": "Bassia scoparia, pre-emergence, 240 h, Preemergence", "summary_of_the_method": "(§1)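 Compounds were formulated in a non-phytotoxic solvent mixture with surfactant and applied as a preemergence directed soil spray after seeding, or sprayed postemergence over plants 2 to 10 cm tall at the one- to two-leaf stage. Evaluation after about 10 d compared treated with untreated controls, using a scale from 0 (no effect) to 100 (complete control).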"}, "[2]": {"test_system": "pigweed (Amaranthus retroflexus)", "test": "Test A preemergence", "settings": "Amaranthus retroflexus, pre-emergence, 240 h, Preemergence"}, "[3]": {"test_system": "giant foxtail (Setaria faberii)", "test": "Test A preemergence", "settings": "Setaria faberi, pre-emergence, 240 h, Preemergence", "summary_of_the_method": "as §1"}, "[4]": {"test_system": "barnyardgrass (Echinochloa crus-galli)", "test": "Test A preemergence", "settings": "Echinochloa crus-galli, pre-emergence, 240 h, Preemergence", "summary_of_the_method": "as §1"}, "[5]": {"test_system": "ryegrass, Italian (Italian ryegrass, Lolium multiflorum)", "test": "Test A preemergence", "settings": "Lolium multiflorum, pre-emergence, 240 h, Preemergence", "summary_of_the_method": "as §1"}, "[6]": {"test_system": "ragweed (common ragweed, Ambrosia elatior)", "test": "Test A preemergence", "settings": "Ambrosia artemisiifolia, pre-emergence, 240 h, Preemergence", "summary_of_the_method": "as §1"}, "[7]": {"test_system": "blackgrass (Alopecurus myosuroides)", "test": "Test A postemergence", "settings": "Alopecurus myosuroides, post-emergence, 240 h, Postemergence, read-out: Blackgrass plant response rating (0 to 100 scale)", "summary_of_the_method": "as §1"}, "[8]": {"test_system": "wheat (Triticum aestivum)", "test": "Test A postemergence", "settings": "Triticum aestivum, post-emergence, 240 h, Postemergence, read-out: Wheat plant response rating (0 to 100 scale)", "summary_of_the_method": "as §1"}, "Kochia (Kochia scoparia) [9]": {"test_system": "Kochia (Kochia scoparia)", "test": "Test A postemergence", "settings": "Bassia scoparia, post-emergence, 240 h, Postemergence, read-out: Kochia plant response rating (0 to 100 scale)", "summary_of_the_method": "as §1"}, "[10]": {"test_system": "pigweed (Amaranthus retroflexus)", "test": "Test A postemergence", "settings": "Amaranthus retroflexus, post-emergence, 240 h, Postemergence, read-out: Pigweed plant response rating (0 to 100 scale)", "summary_of_the_method": "as §1"}, "[11]": {"test_system": "giant foxtail (Setaria faberii)", "test": "Test A postemergence", "settings": "Setaria faberi, post-emergence, 240 h, Postemergence, read-out: Foxtail, Giant plant response rating (0 to 100 scale)", "summary_of_the_method": "as §1"}, "[12]": {"test_system": "barnyardgrass (Echinochloa crus-galli)", "test": "Test A postemergence", "settings": "Echinochloa crus-galli, post-emergence, 240 h, Postemergence", "summary_of_the_method": "as §1"}, "corn (Zea mays)": {"test_system": "corn (Zea mays)", "test": "Test A postemergence", "settings": "Zea mays, post-emergence, 240 h, Postemergence, read-out: Corn plant response rating (0 to 100 scale)", "summary_of_the_method": "as §1"}, "[13]": {"test_system": "ryegrass, Italian (Italian ryegrass, Lolium multiflorum)", "test": "Test A postemergence", "settings": "Lolium multiflorum, post-emergence, 240 h, Postemergence, read-out: Ryegrass, Italian plant response rating (0 to 100 scale)", "summary_of_the_method": "as §1"}, "[14]": {"test_system": "ragweed (common ragweed, Ambrosia elatior)", "test": "Test A postemergence", "settings": "Ambrosia artemisiifolia, post-emergence, 240 h, Postemergence, read-out: Ragweed plant response rating (0 to 100 scale)", "summary_of_the_method": "as §1"}, "rice (Oryra sativa)": {"test_system": "rice (Oryra sativa)", "test": "Test B flooded paddy test", "settings": "Oryza sativa, 360 h, Flood, 250 g ai/ha; visually evaluated after 13 to 15 d; read-out: Plant response rating, Rice (0 to 100 scale where 0 is no effect and 100 is complete control)", "summary_of_the_method": "(§2)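 Plants at 2-leaf stage flooded to 3 cm above soil, with compounds applied directly to paddy water and that depth maintained. Plants kept in greenhouse 13–15 d. Visual rating versus controls on a 0 (no effect) to 100 (complete control) scale.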"}, "[15]": {"test_system": "sedge, umbrella (small-flower umbrella sedge, Cyperus difformis)", "test": "Test B flooded paddy test", "settings": "Cyperus difformis, 360 h, Flood, 250 g ai/ha; visually evaluated after 13 to 15 d; read-out: Plant response rating, Sedge, Umbrella (0 to 100 scale where 0 is no effect and 100 is complete control)", "summary_of_the_method": "as §2"}, "[16]": {"test_system": "barnyardgrass (Echinochloa crus-galli)", "test": "Test B flooded paddy test", "settings": "Echinochloa crus-galli, 360 h, Flood, 250 g ai/ha; visually evaluated after 13 to 15 d; read-out: Plant response rating, Barnyardgrass (0 to 100 scale where 0 is no effect and 100 is complete control)", "summary_of_the_method": "as §2"}, "[17]": {"test_system": "ducksalad (Heteranthera limosa)", "test": "Test B flooded paddy test", "settings": "Heteranthera limosa, 360 h, Flood, 250 g ai/ha; visually evaluated after 13 to 15 d; read-out: Plant response rating, Ducksalad (0 to 100 scale where 0 is no effect and 100 is complete control)", "summary_of_the_method": "as §2"}, "[18]": {"settings": "125 g ai/ha, visual rating about 10 d after treatment"}, "[19]": {"settings": "31 g ai/ha, 0 is no effect, 100 is complete control"}}, "data": [{"compound": "Cc1ccncc1NC(=O)[C@H]1C(=O)N(C)C[C@@H]1c1ccc2c(c1)OC(F)(F)O2", "note": "[Compound 1351]", "values": [{"measurement": "pest or weed control at 31 g/ha", "setting": "Kochia (Kochia scoparia) [1]; 31 g ai/ha, 0 to 100 scale where 0 is no effect and 100 is complete control, read-out: Kochia plant response rating", "value": 0, "unit": "%"}, {"measurement": "pest or weed control at 125 g/ha", "setting": "Kochia (Kochia scoparia) [1]; 125 g ai/ha, 0 to 100 scale (0 no effect, 100 complete control), read-out: Plant response rating, Kochia", "value": 0, "unit": "%"}, {"measurement": "pest or weed control at 31 g/ha", "setting": "[2]; 31 g ai/ha, 0 to 100 scale where 0 is no effect and 100 is complete control, read-out: Pigweed plant response rating", "value": 0, "unit": "%"}, {"measurement": "pest or weed control at 125 g/ha", "setting": "[2]; 125 g ai/ha, 0 to 100 scale (0 no effect, 100 complete control), read-out: Plant response rating, Pigweed", "value": 0, "unit": "%"}, {"measurement": "pest or weed control at 31 g/ha", "setting": "[3]; 31 g ai/ha, 0 to 100 scale where 0 is no effect and 100 is complete control, read-out: Foxtail, Giant plant response rating", "value": 0, "unit": "%"}, {"measurement": "pest or weed control at 125 g/ha", "setting": "[3]; 125 g ai/ha, 0 to 100 scale (0 no effect, 100 complete control), read-out: Plant response rating, Foxtail, Giant", "value": 0, "unit": "%"}, {"measurement": "pest or weed control at 31 g/ha", "setting": "[4]; 31 g ai/ha, 0 to 100 scale where 0 is no effect and 100 is complete control, read-out: Barnyardgrass plant response rating", "value": 0, "unit": "%"}, {"measurement": "pest or weed control at 125 g/ha", "setting": "[4]; 125 g ai/ha, 0 to 100 scale (0 no effect, 100 complete control), read-out: Plant response rating, Barnyardgrass", "value": 0, "unit": "%"}, {"measurement": "pest or weed control at 31 g/ha", "setting": "[5]; 31 g ai/ha, 0 to 100 scale where 0 is no effect and 100 is complete control, read-out: Ryegrass, Italian plant response rating", "value": 0, "unit": "%"}, {"measurement": "pest or weed control at 125 g/ha", "setting": "[5]; 125 g ai/ha, 0 to 100 scale (0 no effect, 100 complete control), read-out: Plant response rating, Ryegrass, Italian", "value": 0, "unit": "%"}, {"measurement": "pest or weed control at 31 g/ha", "setting": "[6]; 31 g ai/ha, 0 to 100 scale where 0 is no effect and 100 is complete control, read-out: Ragweed plant response rating", "value": 0, "unit": "%"}, {"measurement": "pest or weed control at 125 g/ha", "setting": "[6]; 125 g ai/ha, 0 to 100 scale (0 no effect, 100 complete control), read-out: Plant response rating, Ragweed", "value": 0, "unit": "%"}, {"measurement": "pest or weed control at 125 g/ha", "setting": "[7]; [18]", "value": 0, "unit": "%"}, {"measurement": "pest or weed control at 31 g/ha", "setting": "[7]; [19]", "value": 0, "unit": "%"}, {"measurement": "plant injury at 125 g/ha", "setting": "[8]; [18]", "value": 0, "unit": "%"}, {"measurement": "plant injury at 31 g/ha", "setting": "[8]; [19]", "value": 0, "unit": "%"}, {"measurement": "pest or weed control at 125 g/ha", "setting": "Kochia (Kochia scoparia) [9]; [18]", "value": 0, "unit": "%"}, {"measurement": "pest or weed control at 31 g/ha", "setting": "Kochia (Kochia scoparia) [9]; [19]", "value": 0, "unit": "%"}, {"measurement": "pest or weed control at 125 g/ha", "setting": "[10]; [18]", "value": 0, "unit": "%"}, {"measurement": "pest or weed control at 31 g/ha", "setting": "[10]; [19]", "value": 0, "unit": "%"}, {"measurement": "pest or weed control at 125 g/ha", "setting": "[11]; [18]", "value": 0, "unit": "%"}, {"measurement": "pest or weed control at 31 g/ha", "setting": "[11]; [19]", "value": 0, "unit": "%"}, {"measurement": "pest or weed control at 125 g/ha", "setting": "[12]; 125 g ai/ha, visual rating about 10 d after treatment, read-out: Barnyardgrass plant response rating (0 to 100 scale, 0 no effect, 100 complete control)", "value": 0, "unit": "%"}, {"measurement": "pest or weed control at 31 g/ha", "setting": "[12]; 31 g ai/ha, 0 is no effect, 100 is complete control, read-out: Barnyardgrass plant response rating (0 to 100 scale)", "value": 0, "unit": "%"}, {"measurement": "plant injury at 125 g/ha", "setting": "corn (Zea mays); [18]", "value": 0, "unit": "%"}, {"measurement": "plant injury at 31 g/ha", "setting": "corn (Zea mays); [19]", "value": 0, "unit": "%"}, {"measurement": "pest or weed control at 125 g/ha", "setting": "[13]; [18]", "value": 0, "unit": "%"}, {"measurement": "pest or weed control at 31 g/ha", "setting": "[13]; [19]", "value": 0, "unit": "%"}, {"measurement": "pest or weed control at 125 g/ha", "setting": "[14]; [18]", "value": 0, "unit": "%"}, {"measurement": "pest or weed control at 31 g/ha", "setting": "[14]; [19]", "value": 0, "unit": "%"}, {"measurement": "pest or weed control at 250 g/ha", "setting": "rice (Oryra sativa)", "value": 0, "unit": "%"}, {"measurement": "pest or weed control at 250 g/ha", "setting": "[15]", "value": 0, "unit": "%"}, {"measurement": "pest or weed control at 250 g/ha", "setting": "[16]", "value": 0, "unit": "%"}, {"measurement": "pest or weed control at 250 g/ha", "setting": "[17]", "value": 40, "unit": "%"}]}]}
